# Experimental data as given in ChEMBL document CHEMBL2150891, “Compounds and Their Use as BACE Inhibitors: Patent Highlight” (ACS Med Chem Lett, 2012).
# Columns and labels:
# Beta-secretase 1 [1] = target: T1, Beta-secretase 1 (Homo sapiens, UniProt P56817); assay: Inhibition of BACE by TR-FRET assay
# Beta-secretase 1 [2] = target: T1, Beta-secretase 1; assay: Inhibition of BACE by secreted APPbeta release assay
# T1 sequence (P56817 whole entry): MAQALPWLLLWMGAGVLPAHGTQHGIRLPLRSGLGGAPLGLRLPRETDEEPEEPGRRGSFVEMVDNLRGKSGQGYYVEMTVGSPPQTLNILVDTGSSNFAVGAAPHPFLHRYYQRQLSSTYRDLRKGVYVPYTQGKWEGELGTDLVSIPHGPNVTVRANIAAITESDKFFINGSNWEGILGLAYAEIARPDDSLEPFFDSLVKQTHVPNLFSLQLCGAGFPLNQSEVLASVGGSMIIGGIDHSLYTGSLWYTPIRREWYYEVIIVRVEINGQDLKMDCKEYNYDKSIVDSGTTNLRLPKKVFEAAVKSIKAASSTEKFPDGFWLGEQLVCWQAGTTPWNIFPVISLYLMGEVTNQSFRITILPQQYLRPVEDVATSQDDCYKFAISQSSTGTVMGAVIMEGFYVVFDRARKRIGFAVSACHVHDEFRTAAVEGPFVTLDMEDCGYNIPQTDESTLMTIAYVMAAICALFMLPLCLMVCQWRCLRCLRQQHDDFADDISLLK
compound,measurement,setting,value
CC#Cc1cncc(-c2ccc3c(c2)C2(N=C(C)C(N)=N2)C2(CCC(OC)CC2)O3)c1 (configuration not stated),IC50,Beta-secretase 1 [1],1.4 nM
same,IC50,Beta-secretase 1 [2],2.2 nM
